Legend:
HCT-116 = assay: Cytotoxicity against human HCT116 cells after 72 hrs by MTS assay; format: functional, cell-based; conditions: HCT-116, 72 h
A2780 = assay: Cytotoxicity against human A2780 cells after 72 hrs by MTS assay; format: functional, cell-based; conditions: A2780, 72 h

Row | Structure (SMILES) | IC50 (HCT-116) [µM] | IC50 (A2780) [µM]
1 | CC(=O)O[C@H]1C/C(C)=C/C(=O)C[C@@H](C)/C=C/[C@@]2(C)CC[C@@H](C(C)(C)OC(C)=O)[C@H]12 (relative stereo) | 80 | 42
2 | CC(=O)O[C@H]1/C=C(/C)CC(=O)C[C@@H](C)/C=C/[C@@]2(C)CC[C@@H](C(C)(C)OC(C)=O)[C@H]12 (relative stereo) |  | 25
3 | C=C(CCCC(O)CC(C)O)C[C@H]1CC(=C)C[C@@H](O)C/C(C)=C/[C@H](O)CCCC(=O)O1 (stereo not given in full) [ARENOLIDE] | 21 | 9.8
